Experimental data published in paper PMC8043927, “Mycelial culture extracts of selected wood-decay mushrooms as a source of skin-protecting factors” (Biotechnology Letters, 2021).

Target: T1, hyaluronidase
T1 construct: gene SPAM1; bovine testicular enzyme is the usual preparation
Experiment: turbidimetric assay with CTAB, […] nm
Assay type: biochemical
Conditions: hyaluronic acid substrate, acetate buffer pH 4.5, 37 °C, 45 min

- Inhibition of hyaluronidase activity / Positive control: 509.79 µg/mL
SMILES: O=c1c(O)c(-c2ccc(O)c(O)c2)oc2cc(O)cc(O)c12 [quercetin (dihydrate)]
